These results are taken from publication PMC11768653, “Characterization of the Phosphotransferase from Bacillus subtilis 1101 That Is Responsible for the Biotransformation of Zearalenone” (Toxins, 2025).

The experiment has as its target T1, ZPH1101 (Bacillus subtilis, UniProt O34796).
T1 construct: gene yvkC; full-length zph1101 in pET29a, N-terminal 6xHis, E. coli BL21(DE3), Ni-NTA, 90 kDa
Nature of the experiment: HPLC of residual ZEA, Michaelis-Menten fit. The format is biochemical. Particulars: ATP, Mg2+; pH 8.0, 45 °C. As for the experimental part:
HPLC of residual ZEA, Michaelis-Menten fit on ZPH1101 | Michaelis constant (Km), and catalytic constant (kcat) were calculated through fitting to be

T1 sequence (O34796 whole entry): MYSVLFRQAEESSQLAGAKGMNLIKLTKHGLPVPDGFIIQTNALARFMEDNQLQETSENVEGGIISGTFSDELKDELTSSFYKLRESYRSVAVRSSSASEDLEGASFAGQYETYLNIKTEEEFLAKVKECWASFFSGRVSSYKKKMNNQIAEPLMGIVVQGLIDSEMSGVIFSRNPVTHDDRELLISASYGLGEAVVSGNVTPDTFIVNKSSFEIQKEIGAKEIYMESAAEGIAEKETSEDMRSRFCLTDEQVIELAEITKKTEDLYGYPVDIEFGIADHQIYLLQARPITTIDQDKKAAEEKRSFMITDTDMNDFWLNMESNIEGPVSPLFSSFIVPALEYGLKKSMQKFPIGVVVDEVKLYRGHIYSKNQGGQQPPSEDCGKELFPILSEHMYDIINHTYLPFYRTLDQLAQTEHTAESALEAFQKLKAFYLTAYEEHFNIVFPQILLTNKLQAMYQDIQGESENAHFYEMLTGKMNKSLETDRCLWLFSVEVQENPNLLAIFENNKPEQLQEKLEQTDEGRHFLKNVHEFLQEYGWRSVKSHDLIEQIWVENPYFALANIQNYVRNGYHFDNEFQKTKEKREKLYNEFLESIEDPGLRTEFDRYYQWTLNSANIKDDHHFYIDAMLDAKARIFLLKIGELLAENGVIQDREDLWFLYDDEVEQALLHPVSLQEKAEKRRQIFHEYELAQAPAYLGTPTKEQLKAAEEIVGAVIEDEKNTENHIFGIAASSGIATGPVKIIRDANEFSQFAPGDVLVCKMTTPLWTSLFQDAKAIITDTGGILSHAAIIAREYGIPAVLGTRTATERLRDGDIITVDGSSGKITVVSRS

What is called Km is the concentration of substrate that gives half-maximal velocity. Take `C[C@H]1CCCC(=O)CCC/C=C/c2cc(O)cc(O)c2C(=O)O1` [zearalenone]: the Km turned out to be 18.2 µM.
